Consider 12 molecules from patent US9242972B2, “Compounds” (Glaxo Group Limited, priority 2012, dated 2016).

The structures appear in SMILES notation.

The target of test [1] is T1, RORγ ligand binding domain (RORγ-LBD) (Homo sapiens, UniProt P51449).
T1 construct: His6 with thrombin site) (N); made in house; host or cells: E. coli BL21(DE3), modified pET21a vector
T1 sequence (P51449 263-518): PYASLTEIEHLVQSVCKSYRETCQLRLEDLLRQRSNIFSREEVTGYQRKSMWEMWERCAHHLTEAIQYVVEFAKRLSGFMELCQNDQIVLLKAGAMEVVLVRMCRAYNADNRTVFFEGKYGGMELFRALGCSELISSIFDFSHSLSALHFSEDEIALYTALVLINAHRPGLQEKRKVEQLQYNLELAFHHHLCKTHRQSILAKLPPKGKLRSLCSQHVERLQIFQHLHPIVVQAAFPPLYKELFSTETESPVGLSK
In words: Dual Fluorescence Energy Transfer (FRET) Assay. The test is classed as biochemical. As to conditions: RORγ-LBD / SRC1(2) co-activator peptide interaction, read-out: mean pIC50 (converted). The text has this: Dual Fluorescence Energy Transfer (FRET) Assay
This assay is based on the knowledge that nuclear receptors interact with cofactors (transcription factors) in a ligand dependent manner. RORγ is a typical nuclear receptor in that it has an AF2 domain in the ligand binding domain (LBD) which interacts with co-activators. The sites of interaction have been mapped to the LXXLL (SEQ ID NO:1) motifs in the co-activator SRC 1(2) sequences. Short peptide sequences containing the LXXLL (SEQ ID NO:1) motif mimic the behavior of full-length co-activator.
This assay measures ligand-mediated interaction of the co-activator peptide with the purified bacterial-expressed RORγ ligand binding domain (RORγ-LBD) to indirectly assess ligand binding. RORγ has a basal level of interaction with the co-activator SRC1(2) in the absence of ligand, Thus, it is possible to find ligands that inhibit or enhance the RORγ/SRC1(2) interaction.
Human RORγ Ligand Binding Domain (RORγ-LBD) was expressed in E. coli strain BL21(DE3) as an amino-terminal polyhistidine tagged fusion protein. DNA encoding this recombinant protein was sub-cloned into a modified pET21a expression vector (Novagen). A modified polyhistidine tag ([…]) (SEQ ID NO:2) was fused in frame to residues 263-518 of the human RORγ sequence.
Approximately 50 g E. coli cell pellet was resuspended in 300 mL of lysis buffer (30 mM imidazole pH 7.0 and 150 mM NaCl). Cells were lysed by sonication and cell debris was removed by centrifugation for 30 minutes at 20,000 g at 4° C. The cleared supernatant was filtered through a 0.45 uM cellulose acetate membrane filter. The clarified lysate was loaded onto a column (XK-26) packed with ProBond Nickel Chelating resin (InVitrogen), pre-equilibrated with 30 mM imidazole pH 7.0 and 150 mM NaCl. After washing to baseline absorbance with the equilibration buffer, the column was developed with a gradient from 30 to 500 mM imidazole pH 7.0. Column fractions containing the RORγ-LBD protein were pooled and concentrated to a volume of 5 mLs. The concentrated protein was loaded onto a Superdex 200 column pre-equilibrated with 20 mM Tris-Cl pH 7.2 and 200 mM NaCl. The fractions containing the desired RORγ-LBD protein were pooled together.
Purified RORγ-LBD was buffer exchanged by exhaustive dialysis [3 changes of at least 20 volumes (8000×)] against PBS [100 mM NaPhosphate, pH 8 and 150 mM NaCl]. The concentration of RORγ-LBD was approximately 30 uM in PBS. Five-fold molar excess of NHS-LC-Biotin (Pierce) was added in a minimal volume of PBS. This solution was incubated with occasional gentle mixing for 60 minutes at ambient room temperature. The modified RORγ-LBD was dialyzed against 2 buffer changes—TBS pH 8.0 containing 5 mM DTT, 2 mM EDTA and 2% sucrose—each at least 20 times of the volume. The modified protein was distributed into aliquots, frozen on dry ice and stored at −80° C. The biotinylated RORγ-LBD was subjected to mass spectrometric analysis to reveal the extent of modification by the biotinylation reagent. In general, approximately 95% of the protein had at least a single site of biotinylation and the overall extent of biotinylation followed a normal distribution of multiple sites ranged from one to five.
A biotinylated peptide corresponding to amino acid 676 to 700 ([…]) (SEQ ID NO:3) of the co-activator steroid receptor coactivator SRC1(2) was generated using similar method.
Biotinylated SRC1(2) solution was prepared by adding an appropriate amount of biotinylated SRC1(2) from the 100 uM stock solution to a buffer containing 10 mM of freshly added DTT from solid to give a final concentration of 40 nM. An appropriate amount of Europium labeled Streptavidin was then added to the biotinylated SRC1(2) solution in a tube to give a final concentration of 10 nM. The tube was inverted gently and incubated for 15 minutes at room temperature. […]

In test [2] the test system is IL-17A secreted from antiCD3/CD28 stimulated Peripheral Blood Mononuclear cells (PBMC). Briefly: Peripheral Blood Mononucleocyte Cell Assay (PBMC Assay - IL-17). It is filed as cell-based. As to conditions: inhibition of IL-17A release, human PBMC stimulated with CD3/CD28 beads, 48 hours; read-out: mean pIC50 (converted). On the procedure:
Peripheral Blood Mononucleocyte Cell Assay (PBMC Assay—IL-17)
This assay is designed to measure levels of IL-17A secreted from antiCD3/CD28 stimulated frozen Peripheral Blood Mononuclear cells (PBMC) isolated from human blood with the aim of identifying inhibitors of IL-17A release.
2. The compounds for screening are dispensed into a master plate at 10 mM top concentration which are serially diluted 1:3 across 11 points in DMSO, then 500 nl is transferred into a 384-well flat-bottomed Greiner plate to which 50 ul of cell suspension is added: for the single shot screening the highest concentration of compound is 10^−5 M; for 11 point full curve dose response studies the highest concentration is 10^−4 M.
As a low control, DMSO (as supplied, for example, by VWR) (final concentration 1%) in column 6 (16 points).
As a high control, 5-(4-fluorophenyl)-2-ureidothiophene-3-carboxamide (obtainable from, for example, Sigma) at a final concentration of 10^−4 M in DMSO should be used in column 18 (16 points).
9. Make the cell suspension at the concentration 8×10^5 cells/mL. to give a final number of 40,000 cells/well.
1. Add well mixed CD3/CD28 Dynabeads (as supplied, for example, by Dynal) to achieve ratio bead:cell=2:1 (i.e a dilution of 1 in 20). Mix thoroughly.
2. Dispense the suspension into the 384 Assay Plates using Multidrop (50 ul per well). If the volume of cell suspension is large, mix the suspension after dispensing into every other plate.
3. Cover the plates with the lids and place them to the humidified incubator (37° C., 5% CO2) for 48 hours.
1. Block cytokine capture Mesoscale Discovery MSD plates with 0.1% Block buffer B (provided by Mesoscale Discovery) in D-PBS solution using 40 ul per well.
1. Transfer 10 ul of supernatants from assay plates to the MSD plates using Cybiwell. Ensure that all wells are covered with the solution. Tap the plate gently, if some of the wells are not covered with the supernatant.
3. Add 10 ul of MSD IL-17 detecting antibody using multidrop (1 ug/mL in D-PBS without Ca^2+ and Mg^2+ (supplied, for example, by Gibco)).
4. Cover the plates with adhesive foil and incubated with shaking for 3 hours at room temperature
7. Add 35 ul of MSD Read Buffer T×2 using multidrop.
8. Read plates on MSD MA6000 reader using the 384 well plate protocol as per manufacturer's instructions.

With `C=C(C)c1cnc(N(CC(C)C)S(=O)(=O)c2ccc(OCC3CCOCC3)cc2)c(C)c1` [Example 32, N-isobutyl-N-(3-methyl-5-(prop-1-en-2-yl)pyridin-2-yl)-4-((tetrahydro-2H-pyranyl)methoxy)benzenesulfonamide], the IC50 in test [1] was at most 31.6 nM. `Cc1cc(C(C)C)cnc1N(CC(C)C)S(=O)(=O)c1ccc(OC[C@H]2CCNC[C@H]2F)cc1` (relative stereo) [Example 35, 4-((cis-3-fluoropiperidin-4-yl)methoxy)-N-isobutyl-N-(5-isopropyl-3-methylpyridin-2-yl)benzenesulfonamide]: the IC50 in test [2] was 1000 nM. `CC(C)c1ccc(N(C(C)C(C)C)S(=O)(=O)c2ccc(OCC3CCOCC3)cc2)nc1` (stereo not drawn) [Example 38, N-(5-isopropylpyridin-2-yl)-N-(3-methylbutan-2-yl)-4-((tetrahydro-2H-pyran-4-yl)methoxy)benzenesulfonamide]: the IC50 was at most 31.6 nM in test [1] and 1000 nM in test [2]. On to `Cc1noc(C)c1COc1ccc(S(=O)(=O)N(CC(C)C)c2nccc(C(F)(F)F)n2)cc1` [Example 14, 4-{[(3,5-dimethyl-4-isoxazolyl)methyl]oxy}-N-(2-methylpropyl)-N-[4-(trifluoromethyl)-2-pyrimidinyl]benzenesulfonamide], for which the IC50 in test [1] is above 10000 nM.

Regarding `Cc1noc(C)c1COc1ccc(S(=O)(=O)N(CC(C)C)c2ccc(C(C)C)cn2)cc1` [Example 2, 4-((3,5-dimethylisoxazol-4-yl)-methoxy)-N-isobutyl-N-(5-isopropylpyridin-2-yl)benzenesulfonamide], the IC50 is at most 31.6 nM in test [1] and 1000 nM in test [2]. Turning to `CCC(C)CN(c1ccc(C(C)C)cn1)S(=O)(=O)c1ccc(OCc2c(C)noc2C)cc1` (stereo not drawn) [Example 49, 4-((3,5-dimethylisoxazol-4-yl)methoxy)-N-(5-isopropylpyridin-2-yl)-N-(2-methylbutyl)benzenesulfonamide], the IC50 in test [1] was at most 31.6 nM.

Take `Cc1cc(Cl)cnc1N(CC(C)C)S(=O)(=O)c1ccc(OCC2CCOCC2)cc1` [Example 34, N-(5-chloro-3-methylpyridin-2-yl)-N-isobutyl-4-((tetrahydro-2H-pyran-4-yl)methoxy)benzenesulfonamide]: the IC50 in test [1] was at most 31.6 nM. Take `CCc1ccc(C)nc1N(CC(C)C)S(=O)(=O)c1ccc(OCc2c(C)noc2C)cc1` [Example 24, 4-((3,5-dimethylisoxazol-4-yl)methoxy)-N-(3-ethyl-6-methylpyridin-2-yl)-N-isobutylbenzenesulfonamide]: the figures for the IC50 in test [1] and in test [2] were at most 31.6 nM and 1000 nM, respectively.

For the molecule `Cc1noc(C)c1COc1ccc(S(=O)(=O)N(CC2CCC2)c2ccc(C(C)C)cn2)cc1` [Example 47, N-(cyclobutylmethyl)-4-((3,5-dimethylisoxazol-4-yl)methoxy)-N-(5-isopropylpyridin-2-yl)benzenesulfonamide], the IC50 in test [1] is at most 31.6 nM.

For `CC(C)CN(c1ccc(C(C)C)cn1)S(=O)(=O)c1ccc(OCC2CCOCC2)cc1` [Example 33, N-isobutyl-N-(5-isopropylpyridin-2-yl)-4-((tetrahydro-2H-pyran-4-yl)methoxy)benzenesulfonamide], the IC50 in test [1] was at most 31.6 nM.

With `Cc1cc(C(C)C)cnc1N(CC(C)C)S(=O)(=O)c1ccc(OCC2CCOCC2)cc1` [Example 31, N-isobutyl-N-(5-isopropyl-3-methylpyridin-2-yl)-4-((tetrahydro-2H-pyran-4-yl)methoxy)benzenesulfonamide], in test [1], the IC50 is at most 31.6 nM. Same read-out and setting: with `Cc1cnc(N(CC(C)C)S(=O)(=O)c2ccc(OCc3c(C)noc3C)cc2)c(C)c1` [Example 15, 4-{[(3,5-dimethyl-4-isoxazolyl)methyl]oxy}-N-(3,5-dimethyl-2-pyridinyl)-N-(2-methylpropyl)benzenesulfonamide] the figure was at most 31.6 nM.
